From patent US8604206B2, “Compositions for preventing and/or treating degenerative disorders of the central nervous system” (Amicus Therapeutics, Inc., priority 2009, dated 2013)

What was measured:
[1] = Compound concentration in tissue of mice of the GCase enhancement study; format: in vivo, mouse; conditions: 9 doses, 24-hour washout
Procedure: The dosing solutions were prepared in water. Compounds were administered over 2 weeks as follows: week 1, Mon-Fri (On), Sat-Sun (Off); week 2, Mon-Thu (On); necropsy on Friday. Thus, a total of 9 doses (dosing solutions prepared fresh every day) were given to each mouse, with a 24-hour washout between the last dose and necropsy.
(§1) Plasma was collected by spinning blood at 2700 g for 10 minutes at 4° C. Liver, spleen, lung, and brain tissues were removed, washed in cold PBS, blotted dry, flash frozen on dry ice, and stored at −80° C. until analysis. GCase levels were measured by homogenizing approximately 50 mg tissue in 500 μL McIlvane (MI) buffer (100 mM sodium citrate, 200 mM sodium phosphate dibasic, 0.25% sodium taurocholate, and 0.1% Triton X-100, pH 5.2) at pH 5.2 for 3-5 seconds on ice with a micro homogenizer. Homogenates were then incubated at room temperature without and with 2.5 mM conduritol-B-epoxide (CBE) for 30 min. Finally, 3.7 mM 4-methylumbeliferryl-β-glucoside (4-MUG) substrate was added and incubated at 37° C. for 60 min. […] Fluorescence was measured on a plate reader for 1 sec/well using 355 nm excitation and 460 nm emission. Total protein was determined in lysates using the MicroBCA kit according to the manufacturer's instructions. A 4-methylumbelliferone (4-MU) standard curve ranging from 1.0 nM to 50 μM was run in parallel for conversion of raw fluorescence data to absolute GCase activity (in the presence and absence of CBE) and expressed as nanomoles of 4-MU released per milligram of protein per hour (nmol/mg protein/hr). GCase levels and protein levels were calculated using Microsoft Excel (Redmond, Wash.) and GraphPad Prism version 4.02.

[2] = Blood brain barrier penetration, plasma and brain levels after oral administration; format: in vivo, mouse; conditions: mice, single 30 mg/kg (free base equivalent) p.o.
Procedure: For this purpose, 8-week old wild-type male mice (C57BL/6) were administered a single 30 mg/kg (free base equivalent) p.o. dose of reference or test compound by gavage (n=3 mice per time point). Dosing solutions were prepared in water. After dosing, mice were euthanized with CO2 at the following time points: 0-, 0.5-, 1-, and 4-hour post-dose. […] Similarly, brains were collected from each mouse. Plasma was derived by spinning whole blood at 2,700×g for 10 minutes at 4° C. followed by storage on dry ice. Whole brains were washed in cold PBS to remove contaminating blood, blotted dry, flash frozen on dry ice, and ultimately stored at −80° C. until analysis. To prepare brain samples for analysis, 50-100 mg of tissue was homogenized in […] of water/mg tissue. Samples were then clarified by centrifugation. Next, 25 μl of the brain homogenate supernatant or 25 μl of plasma were combined with 25 μl of acetonitrile:water (95/5). […] Samples were again clarified by centrifugation and 75 μl of the supernatant was combined with 75 μl of acetonitrile. Samples were then analyzed for compound levels by LC-MS/MS at PPD Inc. (3230 Deming Way, Middleton, Wis. 53562). In brief, a Thermo Betasil, Silica-100, 50×3 mm, 5μ column equilibrated with a mixture of mobile phase consisting of 5 mM ammonium formate and 0.05% formic acid in (A) 95:5 acetonitrile:water or (B) 70:20:10 methanol:water:acetonitrile was employed. Between 20 and 30 μl sample was injected for analysis. For calculating drug concentrations, raw data for plasma (ng/mL) and brain (ng/g) was converted to nM using the molecular weight of respective compounds and assuming 1 g of tissue is equivalent to 1 mL volume. Concentration as a function of time was plotted in GraphPad Prism version 4.02.

GCase [3] = molecular target: GCase (Mus musculus, UniProt P17439); experiment: GCase enhancement in tissues of orally dosed mice; format: in vivo; conditions: 9 doses over 2 weeks; for GCase increase (fold): 24-hour washout; for GCase enhancement in brain and spleen: mice, p.o.
Sequence of GCase (Mus musculus, UniProt P17439) (P17439 20-515 limits assumed): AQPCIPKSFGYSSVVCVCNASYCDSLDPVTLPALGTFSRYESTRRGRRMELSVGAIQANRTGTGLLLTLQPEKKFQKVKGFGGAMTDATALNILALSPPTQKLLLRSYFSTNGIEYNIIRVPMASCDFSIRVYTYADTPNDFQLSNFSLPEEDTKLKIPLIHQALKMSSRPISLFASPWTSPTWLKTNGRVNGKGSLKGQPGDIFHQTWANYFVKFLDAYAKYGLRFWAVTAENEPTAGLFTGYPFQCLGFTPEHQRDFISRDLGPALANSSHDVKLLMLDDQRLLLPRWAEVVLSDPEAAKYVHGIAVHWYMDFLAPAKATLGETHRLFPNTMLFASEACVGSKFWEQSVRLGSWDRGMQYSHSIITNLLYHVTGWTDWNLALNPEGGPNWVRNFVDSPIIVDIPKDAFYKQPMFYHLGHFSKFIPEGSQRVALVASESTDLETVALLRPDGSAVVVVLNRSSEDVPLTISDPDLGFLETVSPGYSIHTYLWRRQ
Procedure: The ability of orally administered test compounds ((3R,4R,5S)-5-(difluoromethyl)piperidine-3,4-diol, (3R,4R,5S)-5-(1-fluoroethyl)piperidine-3,4-diol, (3R,4R,5S)-5-((R)-1-fluoropropyl)piperidine-3,4-diol hydrochloride, or (3R,4R,5S)-5-benzylpiperidine-3,4-diol) to elevate GCase levels was assessed in mice. For this purpose, 8-week old wild-type male mice (C57BL/6) were administered a […] p.o. (gavage) dose of a compound of the present invention (i.e., (3R,4R,5S)-5-(difluoromethyl)piperidine-3,4-diol, (3R,4R,5S)-5-(1-fluoroethyl)piperidine-3,4-diol, (3R,4R,5S)-5-((R)-1-fluoropropyl)piperidine-3,4-diol hydrochloride, or (3R,4R,5S)-5-benzylpiperidine-3,4-diol). The dosing solutions were prepared in water. Compounds were administered over 2 weeks as follows: week 1, Mon-Fri (On), Sat-Sun (Off); week 2, Mon-Thu (On); necropsy on Friday. Thus, a total of 9 doses (dosing solutions prepared fresh every day) were given to each mouse, with a 24-hour washout between the last dose and necropsy.
as §1

lysosomal GCase = lysosomal GCase (Homo sapiens (Human), UniProt P04062); experiment: In situ lysosomal GCase inhibition and washout assay in fibroblasts from a normal subject; format: cell-based; conditions: for IC50: fibroblasts, 16-24 hours with compound, PFBFDβGlu substrate; for in situ washout from the lysosomal compartment compared to IFG-tartrate: compared to reference compound IFG-tartrate; for in situ washout: fibroblasts treated at IC90, then drug-free medium
Sequence of lysosomal GCase (P04062 40-536): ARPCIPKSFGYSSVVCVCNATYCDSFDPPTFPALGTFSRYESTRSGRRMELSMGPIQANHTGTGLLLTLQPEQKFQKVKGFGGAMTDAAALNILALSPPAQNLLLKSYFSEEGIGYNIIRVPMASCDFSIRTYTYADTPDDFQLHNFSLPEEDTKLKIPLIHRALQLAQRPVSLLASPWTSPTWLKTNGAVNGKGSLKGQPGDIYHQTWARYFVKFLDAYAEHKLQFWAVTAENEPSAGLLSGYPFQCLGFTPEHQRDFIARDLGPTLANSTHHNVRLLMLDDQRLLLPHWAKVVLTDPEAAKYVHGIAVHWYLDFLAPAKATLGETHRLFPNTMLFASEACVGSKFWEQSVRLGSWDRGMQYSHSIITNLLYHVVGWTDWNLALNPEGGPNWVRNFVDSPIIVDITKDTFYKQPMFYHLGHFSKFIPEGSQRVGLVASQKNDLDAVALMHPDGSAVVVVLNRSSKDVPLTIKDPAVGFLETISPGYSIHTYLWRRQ
Procedure: The effect of the novel compounds of the present invention on lysosomal GCase activity was assayed in situ using fibroblasts established from a normal subject. Cells seeded in 48-well plates were incubated with the indicated concentrations of compound for 16-24 hours. For the dose-response assays, cells were incubated with the in situ substrate 5-(pentafluorobenzoylamino)fluorescein di-β-D-glucopyranoside (PFBFDβGlu) for 1 hour and subsequently lysed to determine the extent of substrate hydrolysis in the presence of compound. […] Inhibition was determined as the ratio of activity in the presence of compound to that in the absence of compound. […] Cells were washed extensively and incubated in drug-free medium to allow net compound efflux from cells. Cells were then tested for lysosomal GCase activity at 2 hour intervals over a total period of 8 hours following compound removal. The increase in activity over time was fitted with a single exponential function to determine the compound's washout time.

GCase [4] = molecular target: GCase (Homo sapiens (Human), UniProt P04062); experiment: GCase activity enhancement (EC50, Emax) of Table 2B; format: cell-based; conditions: for increase in GCase activity compared to IFG-tartrate: compared to reference compound IFG-tartrate
Sequence of GCase (Homo sapiens (Human), UniProt P04062) (P04062 40-536): as above

Structure (SMILES) | Compound concentration in tissue ([1]; brain, 10 mg/kg FBE p.o.) | Compound concentration in tissue ([1]; brain, 100 mg/kg FBE p.o.) [nmol/kg] | Compound concentration in tissue ([1]; spleen, 10 mg/kg FBE p.o.) [nmol/kg] | Compound concentration in tissue ([1]; spleen, 100 mg/kg FBE p.o.) [nmol/kg] | blood brain barrier crossing compared to IFG-tartrate [2] | levels detected in brain compared to IFG-tartrate [2] | GCase increase (fold) (GCase [3]; brain, 10 mg/kg FBE p.o.) | GCase increase (fold) (GCase [3]; brain, 100 mg/kg FBE p.o.) | GCase increase (fold) (GCase [3]; spleen, 10 mg/kg FBE p.o.) | GCase increase (fold) (GCase [3]; spleen, 100 mg/kg FBE p.o.) | inhibition of GCase activity (lysosomal GCase) | IC50 (lysosomal GCase) [nM] | EC50 (GCase [4]) [nM] | increase in GCase activity compared to IFG-tartrate (GCase [4]) | GCase enhancement in brain and spleen (GCase [3]) | in situ washout from the lysosomal compartment compared to IFG-tartrate (lysosomal GCase) | in situ washout (lysosomal GCase) [h]
CC[C@@H](F)[C@H]1CNC[C@@H](O)[C@@H]1O.Cl [(3R,4R,5S)-5-((R)-1-fluoropropyl)-piperidine-3,4-diol hydrochloride] | BLQ(2) (BLQ < 2.2 nmol/kg) | 38 | 21 | 60 | crossed the blood brain barrier more readily as compared to IFG-tartrate | higher levels | 0.9 | 1.1 | 0.7 | 0.7 | inhibited GCase activity | 972 ± 201 | 86 ± 2 | enhanced enzyme activity to the same maximum level as reference compound IFG-tartrate at much lower concentration | – | – | –
O[C@@H]1[C@@H](Cc2ccccc2)CNC[C@H]1O [(3R,4R,5S)-5-benzyl-piperidine-3,4-diol] | – | – | – | – | crossed the blood brain barrier more readily as compared to IFG-tartrate | higher levels | 1.2 | 1.4 | 1.0 | 1.2 | inhibited GCase activity | 1300 ± 323 | 180 ± 10 | enhanced enzyme activity to the same maximum level as reference compound IFG-tartrate at much lower concentration | significant GCase enhancement in brain and spleen | considerably faster than reference compound IFG-tartrate | 1.2 ± 0.13
Cl.O[C@H]1[C@H](O)CNC[C@@H]1C(F)F [Cmpd 6, (3R,4R,5S)-5-(Difluoromethyl)piperidine 3,4-diol Hydrochloride] | 55 nmol/kg | 301 | 100 | 435 | crossed the blood brain barrier more readily as compared to IFG-tartrate | higher levels | – | – | – | – | inhibited GCase activity | – | – | enhanced enzyme activity to the same maximum level as reference compound IFG-tartrate at much lower concentration | significant GCase enhancement in brain and spleen | considerably faster than reference compound IFG-tartrate | 2.1 ± 0.30
